US8853230B2, “Inhibitors of JAK” (Portola Pharmaceuticals, Inc., priority 2009, dated 2014)

Assays:
Type in all cases: biochemical
JAK1 = biological target: T1, JAK1 (Homo sapiens, UniProt P23458); test: Z'-LYTE kinase assay, JAK1 tyrosine phosphorylation activity; details: read-out: JAK 1 IC50
T1 construct: 5 μl of catalytic domain recombinant Kinase enzyme+Tyr peptide substrate (Invitrogen, Calif.); purchased Invitrogen
Method: (§1) JAK and TYK2 tyrosine phosphorylation activity is measured using the Z′-LYTE™ Technology developed by Invitrogen Corporation (Carlsbad, Calif.). For JAK1, JAK2 and JAK3 the Z′-LYTE™ Kinase Assay Kit-Tyr6 Peptide (part number PV4122) was used. For TYK2 the Z′-LYTE™ Kinase Assay Kit-Tyr6 Peptide (part number PV3192) was used. The Z′-LYTE™ biochemical assay employs a fluorescence resonance energy transfer (FRET) coupled-enzyme format and is based on the differential sensitivity of phosphorylated and non-phosphorylated peptides to proteolitic cleavage. The assay uses a synthetic peptide substrate that is labelled with a donor fluorophore (coumarin) and an acceptor fluorophore (fluorescein) that make up a FRET pair. In the primary reaction (the Kinase Reaction), the kinase transfers the γ-phosphate of ATP to a single tyrosine residue on the substrate, while the presence of a kinase inhibitor in the primary reaction suppresses phosphorylation. In the secondary reaction (the Development Reaction), a site-specific protease (the Development Reagent) is added. The development buffer quenches the Kinase Reaction, while the protease recognizes and cleaves non-phosphorylated Z′-LYTE™ peptide substrate. Cleavage disrupts FRET between the donor and acceptor fluorophores on the non-phosphoryleted substrate, while uncleaved, phosphorylated substrate maintains FRET.
(§2) To test the ability of candidate molecules to inhibit JAK tyrosine phosphorylation activity, molecules are reconstituted in 100% DMSO and serially diluted 1:10 in polypropylene v-bottom microtiter plates. The candidate molecules are then diluted 1:25 into kinase buffer and 2.5 μl transferred into duplicate wells of a 384 well low volume black microtiter assay plate (Corning, USA). The final DMSO concentration in the assay is 1%. The kinase reaction contains 2.5 μl of a candidate molecule, 5 μl of catalytic domain recombinant Kinase enzyme+Tyr peptide substrate (Invitrogen, Calif.) and 2.5 μl ATP (Invitrogen, Calif.). The kinase reaction is allowed to procede for 1 hour at room temperature. The protease reaction is initiated by the addition of 5 μl Development Reagent (Invitrogen, Calif.). After 1 hour incubation at room temperature the fluorescence is measured using a FlexStation plate reader (Molecular Devices, Sunnyvale, Calif.). The reader settings used are as follows: Fluorescence mode, endpoint, top read, excitation 400 nm, emission 445 nm and 520 nm, Auto Cutoff 435 nm and 515 nm, PMT sensitivity high, 6 reads per well. Inhibition of JAK activity is calculated as the percent phosphorylation of substrate in the presence of inhibitor compared to the percent phosphorylation of substrate in the absence of inhibitor. IC50's were derived using Xlfit 4.3 (IDBS, UK), 4 parameter logistic model 205: Y=(A+((B−A)/(1+((C/x)^D)))).

JAK3 = biological target: T2, JAK3 (Homo sapiens, UniProt P52333); test: Z'-LYTE kinase assay, JAK3 tyrosine phosphorylation activity
T2 construct: 5 μl of catalytic domain recombinant Kinase enzyme+Tyr peptide substrate (Invitrogen, Calif.); purchased Invitrogen
T2 sequence (P52333 822-1111 limits assumed): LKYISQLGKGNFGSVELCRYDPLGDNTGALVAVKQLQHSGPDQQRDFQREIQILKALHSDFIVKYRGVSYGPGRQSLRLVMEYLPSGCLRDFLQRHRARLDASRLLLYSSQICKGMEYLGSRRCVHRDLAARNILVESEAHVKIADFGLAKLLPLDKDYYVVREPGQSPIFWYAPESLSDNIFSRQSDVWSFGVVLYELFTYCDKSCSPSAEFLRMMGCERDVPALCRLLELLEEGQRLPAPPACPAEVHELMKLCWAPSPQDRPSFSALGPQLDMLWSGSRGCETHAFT
Method: as §1, §2

JAK2 = biological target: T3, JAK2 (Homo sapiens, UniProt O60674); test: Z'-LYTE kinase assay, JAK2 tyrosine phosphorylation activity
T3 construct: 5 μl of catalytic domain recombinant Kinase enzyme+Tyr peptide substrate (Invitrogen, Calif.); purchased Invitrogen
T3 sequence (O60674 849-1124 limits assumed): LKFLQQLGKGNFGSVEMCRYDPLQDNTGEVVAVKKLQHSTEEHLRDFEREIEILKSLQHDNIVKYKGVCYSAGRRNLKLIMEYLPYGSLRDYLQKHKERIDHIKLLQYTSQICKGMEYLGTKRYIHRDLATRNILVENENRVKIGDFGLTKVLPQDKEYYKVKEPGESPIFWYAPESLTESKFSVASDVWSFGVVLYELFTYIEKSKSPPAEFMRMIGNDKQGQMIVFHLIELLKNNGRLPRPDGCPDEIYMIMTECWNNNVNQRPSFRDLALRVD
Method: as §1, §2

T1 sequence (P23458 875-1153 limits assumed): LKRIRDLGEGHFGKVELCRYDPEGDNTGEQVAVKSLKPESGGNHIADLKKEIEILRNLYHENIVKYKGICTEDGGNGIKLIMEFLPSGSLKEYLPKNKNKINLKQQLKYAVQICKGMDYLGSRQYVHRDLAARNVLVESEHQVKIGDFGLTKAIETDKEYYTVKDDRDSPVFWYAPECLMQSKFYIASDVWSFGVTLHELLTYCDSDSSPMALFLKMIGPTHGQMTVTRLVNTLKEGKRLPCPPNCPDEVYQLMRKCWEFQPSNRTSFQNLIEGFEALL

IC50 (JAK1) [nM] | IC50 (JAK3) [nM] | IC50 (JAK2) [nM] | SMILES
100 to 1000 | 10 to 100 | 100 to 1000 | NC(=O)c1cnc(Nc2ccc(F)c(NC(=O)N3CCCC3)c2)cc1NCc1cccc(F)c1 [Example 307]
 | 1 to 10 |  | CC(=O)Nc1cccc(Nc2ncc(C(N)=O)c(Nc3ccc(NC(=O)CC#N)cc3)n2)c1 [Example 301, 2-(3-acetamidophenylamino)-4-(4-(2-cyanoacetamido)-phenylamino)pyrimidine-5-carboxamide]
 | 10 to 100 |  | CC(=O)Nc1cccc(Nc2ncc(C(N)=O)c(Nc3ccc(NC(=O)C4(C#N)CC4)cc3)n2)c1 [Example 302, 2-(3-acetamidophenylamino)-4-(4-(1-cyanocyclopropane-carboxamido)phenylamino)pyrimidine-5-carboxamide]
 | < 1 |  | NC(=O)c1cnc(Nc2cccc(NC(=O)Cc3ccncc3)c2)nc1NCc1ccccc1F [Example 299, 4-(2-fluorobenzylamino)-2-(3-(2-(pyridin-4-yl)acetamido)-phenylamino)pyrimidine-5-carboxamide]
 | < 1 |  | NC(=O)c1cnc(Nc2cccc(NC(=O)N3CC[C@@H](F)C3)c2)nc1NCc1ccccc1 [Example 283, (R)-4-(benzylamino)-2-(3-(3-fluoropyrrolidine-1-carboxamido)phenylamino)pyrimidine-5-carboxamide]
> 1000 | 1 to 10 | 100 to 1000 | NC(=O)c1cnc(Nc2ccc(F)c(NC(=O)N3CCC3)c2)cc1N[C@H](CO)c1ccccc1 [Example 311, (S)-6-(3-(azetidine-1-carboxamido)-4-fluorophenylamino)-4-(2-hydroxy-1-phenylethylamino)nicotinamide]
> 1000 | > 1000 | > 1000 | CNC(=O)c1cnc(Nc2cccc(NC(C)=O)c2)cc1NCc1ccccc1 [Example 339, 6-(3-acetamidophenylamino)-4-(benzylamino)-N-methylnicotinamide]
100 to 1000 | 1 to 10 | 10 to 100 | NC(=O)c1cnc(Nc2cccc(NC(=O)N3CCOCC3)c2)cc1NCc1cccc(F)c1 [Example 308, N-(3-(5-carbamoyl-4-(3-fluorobenzylamino)pyridin-2-ylamino)phenyl)morpholine-4-carboxamide]
> 1000 | 10 to 100 | > 1000 | NC(=O)c1cnc(Nc2ccc(F)c(NC(=O)N3CCC3)c2)cc1NCc1cccnc1 [Example 317, 6-(3-(azetidine-1-carboxamido)-4-fluorophenylamino)-4-(pyridin-3-ylmethylamino)nicotinamide]
 | 1 to 10 |  | NC(=O)c1cnc(Nc2ccc(F)c(NC(=O)N3CCCC3)c2)nc1NCc1ccccc1F [Example 288, 2-(4-fluoro-3-(pyrrolidine-1-carboxamido)phenylamino)-4-(2-fluorobenzylamino)pyrimidine-5-carboxamide]
> 1000 | 1 to 10 | 100 to 1000 | NC(=O)c1cnc(Nc2cccc(NC(=O)N3CCCC3)c2)cc1N[C@H](CO)c1ccccc1 [Example 315, (S)-4-(2-hydroxy-1-phenylethylamino)-6-(3-(pyrrolidine-1-carboxamido)phenylamino)nicotinamide]
 | 10 to 100 |  | NC(=O)c1cnc(Nc2cccc(NC(=O)c3ccccn3)c2)nc1NCc1ccccc1F [Example 295, 4-(2-fluorobenzylamino)-2-(3-(picolinamido)-phenylamino)pyrimidine-5-carboxamide]
> 1000 | 10 to 100 | 100 to 1000 | NC(=O)c1cnc(Nc2cccc(NC(=O)N3CCOCC3)c2)cc1NCc1cccnc1 [Example 319, N-(3-(5-carbamoyl-4-(pyridin-3-ylmethylamino)pyridin-2-ylamino)phenyl)morpholine-4-carboxamide]
> 1000 | 10 to 100 | 100 to 1000 | CN(C)[C@@H]1CCN(C(=O)Nc2cccc(Nc3cc(NCc4cccnc4)c(C(N)=O)cn3)c2)C1 [Example 318, (R)-6-(3-(3-(dimethylamino)pyrrolidine-1-carboxamido)phenylamino)-4-(pyridin-3-ylmethylamino)nicotinamide]
 | < 1 |  | NC(=O)c1cnc(Nc2cccc(NC(=O)Cc3ccccn3)c2)nc1NCc1ccccc1F [Example 300, 4-(2-fluorobenzylamino)-2-(3-(2-(pyridin-2-yl)acetamido)-phenylamino)pyrimidine-5-carboxamide]
 | < 1 |  | NC(=O)c1cnc(Nc2cccc(NC(=O)c3cccnc3)c2)nc1NCc1ccccc1F [Example 296, 4-(2-fluorobenzylamino)-2-(3-(nicotinamido)-phenylamino)pyrimidine-5-carboxamide]
 | 10 to 100 |  | NC(=O)c1cnc(Nc2cccc(NC(=O)N3CC[C@@H](F)C3)c2)nc1NCc1ccccc1F [Example 289, (R)-4-(2-fluorobenzylamino)-2-(3-(3-fluoropyrrolidine-1-carboxamido)phenylamino)pyrimidine-5-carboxamide]
 | 10 to 100 |  | CC(=O)Nc1cccc(Nc2ncc(C(N)=O)c(Nc3ccc(NC(=O)CC(F)(F)F)cc3)n2)c1 [Example 303, 2-(3-acetamidophenylamino)-4-(4-(3,3,3-trifluoro-propanamido)phenylamino)pyrimidine-5-carboxamide]
 | < 1 |  | NC(=O)c1cnc(Nc2cccc(NC(=O)N3CC[C@H](F)C3)c2)nc1NCc1ccccc1 [Example 284, (S)-4-(benzylamino)-2-(3-(3-fluoropyrrolidine-1-carboxamido)phenylamino)pyrimidine-5-carboxamide]
 | < 1 |  | NC(=O)c1cnc(Nc2cccc(NC(=O)N3CC[C@@H](O)C3)c2)nc1NCc1ccccc1 [Example 282, (R)-4-(benzylamino)-2-(3-(3-hydroxypyrrolidine-1-carboxamido)phenylamino)pyrimidine-5-carboxamide]
> 1000 | 10 to 100 | > 1000 | NC(=O)c1cnc(Nc2ccc(F)c(NC(=O)N3CCCC3)c2)cc1N[C@H](CO)c1ccccc1 [Example 313, (S)-6-(4-fluoro-3-(pyrrolidine-1-carboxamido)phenylamino)-4-(2-hydroxy-1-phenylethylamino)nicotinamide]
100 to 1000 | 1 to 10 | 100 to 1000 | CC(=O)Nc1cccc(Nc2cc(NCc3cccc(F)c3)c(C(N)=O)cn2)c1 [Example 310, 6-(3-acetamidophenylamino)-4-(3-fluorobenzylamino)nicotinamide]
100 to 1000 | 10 to 100 | 100 to 1000 | CC(=O)Nc1cccc(Nc2cc(NCc3cccnc3)c(C(N)=O)cn2)c1 [Example 321, 6-(3-acetamidophenylamino)-4-(pyridin-3-ylmethylamino)nicotinamide]
 | 1 to 10 |  | NC(=O)c1cnc(Nc2cccc(NC(=O)c3cccc(O)n3)c2)nc1NCc1ccccc1F [Example 298, 4-(2-fluorobenzylamino)-2-(3-(6-hydroxypicolinamido)-phenylamino)pyrimidine-5-carboxamide]
> 1000 | 1 to 10 | 100 to 1000 | NC(=O)c1cnc(Nc2cccc(NC(=O)N3CCCC3)c2)cc1NCc1cc(F)cc(F)c1 [Example 341, 4-(3,5-difluorobenzylamino)-6-(3-(pyrrolidine-1-carboxamido)phenylamino)nicotinamide]
 | 1 to 10 |  | NC(=O)c1cnc(Nc2ccc(F)c(NC(=O)N3CCC3)c2)nc1NCc1ccccc1F [Example 290, 2-(3-(azetidine-1-carboxamido)-4-fluorophenylamino)-4-(2-fluorobenzylamino)pyrimidine-5-carboxamide]
 | 100 to 1000 |  | NC(=O)c1cnc(Nc2cccc(NC(=O)N3CCCC3)c2)nc1NCC1CCCC1 [Example 281]
 | 1 to 10 |  | NC(=O)c1cnc(Nc2cccc(NC(=O)Cc3cccnc3)c2)nc1NCc1ccccc1F [Example 297, 4-(2-fluorobenzylamino)-2-(3-(2-(pyridin-3-yl)acetamido)-phenylamino)pyrimidine-5-carboxamide]
 | < 1 |  | CC(=O)Nc1cccc(Nc2ncc(C(N)=O)c(NCC3CCCC3)n2)c1 [Example 280, 2-(3-acetamidophenylamino)-4-(cyclopentylmethylamino)pyrimidine-5-carboxamide]
